Measurements taken from patent publication US20240238425A1, “HSD17B13 Inhibitors and/or Degraders” (Pfizer Inc., priority 2022, published 2024).
Counter-ions that a name gives are not always drawn.

Tested on: HiBiT-HSD17β13 fusion protein (N-terminal HiBiT-tagged HSD17β13 isoform D) in Huh7 HiBiT-HSD17β13 OE cells
Assay: Whole-cell Huh7-HSD17B13 HiBiT assay (degrader potency and maximal efficacy, luminescence readout)
Type: cell-based, human
Settings: 24 hour incubation, geometric mean, * = geometric mean for all forms tested (parent and salt forms); for DC50: read-out: Huh7_HIBIT-HSD17β13_DC50 GMean DC50; for Huh7_HIBIT-HSD17β13_DC50 GMean Asymptote Maximum: max. concentration 1 μM
Procedure, shortened: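 Huh7 cells stably overexpressing N-terminal HiBiT-tagged HSD17β13 isoform D, clone matched to primary hepatocyte expression, were exposed to an 11-point, 1 in 3.162 dilution series (top 1 μM final) for 24 h at 37° C. Lytic HiBiT luminescence was normalised to DMSO and parental-cell controls; DC50 from four-parameter logistic fit, with CellTiter-Glo counter screen.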

With Cn1c(=O)n(C2CCC(=O)NC2=O)c2ccc(CCCN3CCN(c4cnc(-c5ccc6cn([C@H]7CC[C@H](CNC(=O)c8cc(F)c(O)c(F)c8F)CC7)nc6c5)nc4)CC3)cc21 (mixture of isomers) [Example 76, N-{[(1r,4r)-4-(6-{5-[4-(3-{1-[(3RS)-2,6-dioxopiperidin-3-yl]-3-methyl-2-oxo-2,3-dihydro-1H-benzimidazol-5-yl}propyl)piperazin-1-yl]pyrimidin-2-yl}-2H-indazol-2-yl)cyclohexyl]methyl}-2,3,5-trifluoro-4-hydroxybenzamide, trifluoroacetate salt] the DC50 was 0.15 nM and the “Huh7_HIBIT-HSD17β13_DC50 GMean Asymptote Maximum” value was 89* %.

For Cc1ccc(C(=O)N2CCC3(CCC(N4CCN(c5ccc6cn([C@H]7CC[C@H](CNC(=O)c8cc(F)c(O)c(F)c8F)CC7)nc6c5)CC4)CC3)CC2)cc1N1CCC(=O)NC1=O [Example 111, N-({(1r,4r)-4-[6-(4-{3-[3-(2,4-dioxo-1,3-diazinan-1-yl)-4-methylbenzoyl]-3-azaspiro[5.5]undecan-9-yl}piperazin-1-yl)-2H-indazol-2-yl]cyclohexyl}methyl)-2,3,5-trifluoro-4-hydroxybenzamide, trifluoroacetate salt], the DC50 was 0.85 nM and the “Huh7_HIBIT-HSD17β13_DC50 GMean Asymptote Maximum” value was 80%.

For Cn1c(=O)n(C2CCC(=O)NC2=O)c2ccc(CCCN3C[C@@H]4CN(c5ccc6cn([C@H]7CC[C@H](CNC(=O)c8cc(F)c(O)c(F)c8F)CC7)nc6c5)C[C@@H]4C3)cc21 (mixture of isomers) [Example 85, N-{[(1r,4r)-4-{6-[(3aR,6aS)-5-(3-{1-[(3RS)-2,6-dioxopiperidin-3-yl]-3-methyl-2-oxo-2,3-dihydro-1H-benzimidazol-5-yl}propyl)hexahydropyrrolo[3,4-c]pyrrol-2(1H)-yl]-2H-indazol-2-yl}cyclohexyl]methyl}-2,3,5-trifluoro-4-hydroxybenzamide], the DC50 was 0.86 nM and the “Huh7_HIBIT-HSD17β13_DC50 GMean Asymptote Maximum” value was 73%.

O=C1CCC(N2Cc3c(OCc4ccc(CN5CCC(CCCOc6ccc(-c7noc([C@]89CC[C@](CNC(=O)c%10cc(F)c(O)c(F)c%10F)(CC8)CC9)n7)nn6)CC5)cc4)cccc3C2=O)C(=O)N1 (mixture of isomers) [Example 36, N-({4-[3-(6-{3-[1-({4-[{{2-[(3RS)-2,6-dioxopiperidin-3-yl]-1-oxo-2,3-dihydro-1H-isoindol-4-yl}oxy)methyl]phenyl}methyl)piperi-din-4-yl]propoxy}pyridazin-3-yl)-1,2,4-oxadiazol-5-yl]bicyclo[2.2.2]octan-1-yl}methyl)-2,3,5-trifluoro-4-hydroxybenzamide, trifluoroacetate salt] was tested, and the DC50 was 2.2 nM and the “Huh7_HIBIT-HSD17β13_DC50 GMean Asymptote Maximum” value was 86%.

With Cn1c(=O)n(C2CCC(=O)NC2=O)c2ccc(CCN3CCC(F)(Cc4ccc5cn([C@H]6CC[C@H](CNC(=O)c7cc(F)c(O)c(F)c7F)CC6)nc5c4)CC3)cc21 (mixture of isomers) [Example 44, N-{[(1r,4r)-4-(6-{[1-(2-{1-[(3RS)-2,6-dioxopiperidin-3-yl]-3-methyl-2-oxo-2,3-dihydro-1H-benzimidazol-5-yl}ethyl)-4-fluoropiperidin-4-yl]methyl}-2H-indazol-2-yl)cyclohexyl]methyl}-2,3,5-trifluoro-4-hydroxybenzamide, trifluoroacetate salt] the DC50 was 1.5 nM and the “Huh7_HIBIT-HSD17β13_DC50 GMean Asymptote Maximum” value was 84%.

For Cn1c(=O)n(C2CCC(=O)NC2=O)c2ccc(CCCN3CCn4cc(-c5ccc6cn([C@H]7CC[C@H](CNC(=O)c8cc(F)c(O)c(F)c8F)CC7)nc6c5)nc4C3)cc21 (mixture of isomers) [Example 100, N-{[(1r,4r)-4-{6-[7-(3-{1-[(3RS)-2,6-dioxopiperidin-3-yl]-3-methyl-2-oxo-2,3-dihydro-1H-benzimidazol-5-yl}propyl)-5,6,7,8-tetrahydroimidazo[1,2-a]pyrazin-2-yl]-2H-indazol-2-yl}cyclohexyl]methyl}-2,3,5-trifluoro-4-hydroxybenzamide, formate salt], the DC50 was 2.2 nM and the “Huh7_HIBIT-HSD17β13_DC50 GMean Asymptote Maximum” value was 84%.

For O=C1CCN(c2cnn3cc(CCCN4CCOC5(CCN(c6ccc7cn([C@H]8CC[C@H](CNC(=O)c9cc(F)c(O)c(F)c9F)CC8)nc7c6)CC5)C4)ccc23)C(=O)N1 [Example 28, N-({(1r,4r)-4-[6-(4-{3-[3-(2,4-dioxo-1,3-diazinan-1-yl)pyrazolo[1,5-a]pyridin-6-yl]propyl}-1-oxa-4,9-diazaspiro[5.5]undecan-9-yl)-2H-indazol-2-yl]cyclohexyl}methyl)-2,3,5-trifluoro-4-hydroxybenzamide], the DC50 was 0.59 nM and the “Huh7_HIBIT-HSD17β13_DC50 GMean Asymptote Maximum” value was 90%.

Cc1ccc(C(=O)N2CCC3(CC2)CC(N2CCN(c4ncc(-c5ccc6cn(C7CCC(CNC(=O)c8cc(F)c(O)c(F)c8F)CC7)nc6c5)cn4)CC2)CO3)cc1N1CCC(=O)NC1=O (centres unmarked) [Example 11, N-{[(1r,4r)-4-{6-[2-(4-{8-[3-(2,4-Dioxo-1,3-diazinan-1-yl)-4-methylbenzoyl]-1-oxa-8-azaspiro[4.5]decan-3-yl}piperazin-1-yl)pyrimidin-5-yl]-2H-indazol-2-yl}cyclohexyl]methyl}-2,3,5-trifluoro-4-hydroxybenzamide] was tested, and the DC50 was 0.94 nM and the “Huh7_HIBIT-HSD17β13_DC50 GMean Asymptote Maximum” value was 81%.

With O=C1CCN(c2cnn3cc(CCCN4CCN(c5ccc6cn([C@]78CC[C@](CNC(=O)c9cc(F)c(O)c(F)c9F)(CC7)CC8)nc6c5)CC4)ccc23)C(=O)N1 [Example 97, N-({4-[6-(4-{3-[3-(2,4-dioxo-1,3-diazinan-1-yl)pyrazolo[1,5-a]pyridin-6-yl]propyl}piperazin-1-yl)-2H-indazol-2-yl]bicyclo[2.2.2]octan-1-yl}methyl)-2,3,5-trifluoro-4-hydroxybenzamide, trifluoroacetate salt] the DC50 was 2.4 nM and the “Huh7_HIBIT-HSD17β13_DC50 GMean Asymptote Maximum” value was 76%.

In the case of Cn1c(=O)n(C2CCC(=O)NC2=O)c2ccc(CCCN3CCOC4(CCN(c5ccc6cn([C@H]7CC[C@H](CNC(=O)c8cc(F)c(O)c(F)c8F)CC7)nc6c5)CC4)C3)cc21 (mixture of isomers) [Example 75, N-{[(1r,4r)-4-{6-[4-(3-{1-[(3RS)-2,6-dioxopiperidin-3-yl]-3-methyl-2-oxo-2,3-dihydro-1H-benzimidazol-5-yl}propyl)-1-oxa-4,9-diazaspiro[5.5]undecan-9-yl]-2H-indazol-2-yl}cyclohexyl]methyl}-2,3,5-trifluoro-4-hydroxybenzamide, trifluoroacetate salt], the DC50 is reported as 0.19 nM and the “Huh7_HIBIT-HSD17β13_DC50 GMean Asymptote Maximum” value is reported as 88%.

For Cn1c(=O)n(C2CCC(=O)NC2=O)c2ccc(CCCN3CCN(c4nccc(-c5nc([C@]67CC[C@](CNC(=O)c8cc(F)c(O)c(F)c8F)(CC6)CC7)no5)n4)CC3)cc21 (mixture of isomers) [Example 121, formate salt], the DC50 was 0.2 nM and the “Huh7_HIBIT-HSD17β13_DC50 GMean Asymptote Maximum” value was 85%.

Cc1ccc(C(=O)N2CCC3(CC2)CC(N2CCN(c4cnc(-c5ccc6cn([C@H]7CC[C@H](CNC(=O)c8cc(F)c(O)c(F)c8F)CC7)nc6c5)cn4)CC2)CO3)cc1N1CCC(=O)NC1=O (some centres unmarked) [Example 71, N-{[(1r,4r)-4-{6-[5-(4-{8-[3-(2,4-dioxo-1,3-diazinan-1-yl)-4-methylbenzoyl]-1-oxa-8-azaspiro[4.5]decan-3-yl}piperazin-1-yl)pyrazin-2-yl]-2H-indazol-2-yl}cyclohexyl]methyl}-2,3,5-trifluoro-4-hydroxybenzamide, trifluoroacetate salt] was tested, and the DC50 was 2.4 nM and the “Huh7_HIBIT-HSD17β13_DC50 GMean Asymptote Maximum” value was 76%.

With Cn1c(=O)n(C2CCC(=O)NC2=O)c2ccc(CCCN3CCN(c4nccc(-c5nc(C6CCC(CNC(=O)c7cc(F)c(O)c(F)c7F)CC6)no5)n4)CC3)cc21.O=C(O)C(F)(F)F (racemic) [Example 17, N-{[(1r,4r)-4-(5-{2-[4-(3-{1-[(3RS)-2,6-Dioxopiperidin-3-yl]-3-methyl-2-oxo-2,3-dihydro-1H-benzimidazol-5-yl}propyl)piperazin-1-yl]pyrimidin-4-yl}-1,2,4-oxadiazol-3-yl)cyclohexyl]methyl}-2,3,5-trifluoro-4-hydroxybenzamide, trifluoroacetate salt] the DC50 was 0.47 nM and the “Huh7_HIBIT-HSD17β13_DC50 GMean Asymptote Maximum” value was 85%.

With Cn1c(=O)n(C2CCC(=O)NC2=O)c2ccc(CCCN3CCN(c4nc(-c5nc([C@]67CC[C@](CNC(=O)c8cc(F)c(O)c(F)c8F)(CC6)CC7)no5)cc(N5CCOCC5)n4)CC3)cc21 (mixture of isomers) [Example 123, N-{[4-(5-{2-[4-(3-{1-[(3RS)-2,6-dioxopiperidin-3-yl]-3-methyl-2-oxo-2,3-dihydro-1H-benzimidazol-5-yl}propyl)piperazin-1-yl]-6-(morpholin-4-yl)pyrimidin-4-yl}-1,2,4-oxadiazol-3-yl)bicyclo[2.2.2]octan-1-yl]methyl}-2,3,5-trifluoro-4-hydroxybenzamide] the DC50 was 0.23 nM and the “Huh7_HIBIT-HSD17β13_DC50 GMean Asymptote Maximum” value was 79%.

With Cc1ccc(C(=O)N2CCC3(CCC(CN4CCN(c5ccc6cn([C@H]7CC[C@H](CNC(=O)c8cc(F)c(O)c(F)c8F)CC7)nc6c5)CC4)CC3)CC2)cc1N1CCC(=O)NC1=O [Example 103, N-{[(1r,4r)-4-{6-[4-({3-[3-(2,4-dioxo-1,3-diazinan-1-yl)-4-methylbenzoyl]-3-azaspiro[5.5]undecan-9-yl}methyl)piperazin-1-yl]-2H-indazol-2-yl}cyclohexyl]methyl}-2,3,5-trifluoro-4-hydroxybenzamide, trifluoroacetate salt] the DC50 was 1.2 nM and the “Huh7_HIBIT-HSD17β13_DC50 GMean Asymptote Maximum” value was 76%.

With COc1c(C(=O)NC[C@]23CC[C@](c4noc(-c5ccnc(N6CCN(CCCc7ccc8c(c7)n(C)c(=O)n8C7CCC(=O)NC7=O)CC6)n5)n4)(CC2)CC3)cc(F)c(O)c1F (mixture of isomers) [Example 124, N-{[4-(5-{2-[4-(3-{1-[(3RS)-2,6-dioxopiperidin-3-yl]-3-methyl-2-oxo-2,3-dihydro-1H-benzimidazol-5-yl}propyl)piperazin-1-yl]pyrimidin-4-yl}-1,2,4-oxadiazol-3-yl)bicyclo[2.2.2]octan-1-yl]methyl}-3,5-difluoro-4-hydroxy-2-methoxybenzamide, trifluoroacetate salt] the DC50 was 0.27 nM and the “Huh7_HIBIT-HSD17β13_DC50 GMean Asymptote Maximum” value was 72%.
